Test results as given in ChEMBL document CHEMBL1201862, “PubChem BioAssay data set” (2004).
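Where inhibition never reached the appropriate level, the endpoint shown equals the highest concentration tested. Otherwise, values were interpolated linearly from a five-concentration, 48-hour dose response in 96-well plates. Abbreviation: GI50, concentration required for 50% inhibition of growth.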 Calls of active or inactive are those of the source. No stated cut-off is given here; in the data, active = GI50 up to about 1.1 µM and inactive = higher.

Assays:
Experiment in all cases: NCI anticancer screen, dose series, 48 h
U-251 = system: U-251
HOP-62 = system: HOP-62
OVCAR-5 = system: OVCAR-5
UO-31 = system: UO-31
Malme-3M = system: Malme-3M
HCT-116 = system: HCT-116
RPMI-8226 = system: RPMI-8226
M14 = system: M14
HCT-15 = system: HCT-15
LXFL 529 = system: LXFL 529
LOX IMVI = system: LOX IMVI
SF-268 = system: SF-268
OVCAR-8 = system: OVCAR-8
HL-60 = system: HL-60
IGROV-1 = system: IGROV-1
SNB-19 = system: SNB-19
NCI-H226 = system: NCI-H226
SF-539 = system: SF-539
K562 = system: K562
UACC-62 = system: UACC-62
RXF 393 = system: RXF 393
HCC 2998 = system: HCC 2998
SK-MEL-28 = system: SK-MEL-28
UACC-257 = system: UACC-257
SNB-78 = system: SNB-78
SK-MEL-2 = system: SK-MEL-2
NCI-H522 = system: NCI-H522
A549 = system: A549
NCI-H460 = system: NCI-H460
M19-MEL = system: M19-MEL
A498 = system: A498
CAKI-1 = system: CAKI-1
SN12C = system: SN12C
786-0 = system: 786-0
OVCAR-3 = system: OVCAR-3
KM12 = system: KM12
SK-OV-3 = system: SK-OV-3
HOP-92 = system: HOP-92
ACHN = system: ACHN
DMS-273 = system: DMS-273
MOLT-4 = system: MOLT-4
OVCAR-4 = system: OVCAR-4
SK-MEL-5 = system: SK-MEL-5
SR = system: SR
DMS-114 = system: DMS-114
HT-29 = system: HT-29
SF-295 = system: SF-295
SNB-75 = system: SNB-75
SW-620 = system: SW-620
KM-20L2 = system: KM-20L2
EKVX = system: EKVX
NCI-H23 = system: NCI-H23
TK-10 = system: TK-10
DLD-1 = system: DLD-1
CCRF-CEM = system: CCRF-CEM
COLO 205 = system: COLO 205

Compound: C=C1C(=O)C23C(CC(OC(C)=O)C1[C@@H]2OC(C)=O)C1(C)C(OC(C)=O)CCC(C)(C)C1C[C@@H]3OC(C)=O (stereo partly specified)
- GI50 (U-251): 1550 nM (inactive)
- GI50 (HOP-62): 3140 nM (inactive)
- GI50 (OVCAR-5): 1860 nM (inactive)
- GI50 (UO-31): 1800 nM (inactive)
- GI50 (Malme-3M): 1550 nM (inactive)
- GI50 (HCT-116): 1620 nM (inactive)
- GI50 (RPMI-8226): 1480 nM (inactive)
- GI50 (M14): 1560 nM (inactive)
- GI50 (HCT-15): 1230 nM
- GI50 (LXFL 529): 1350 nM (inactive)
- GI50 (LOX IMVI): 1240 nM (inactive)
- GI50 (SF-268): 1560 nM (inactive)
- GI50 (OVCAR-8): 418 nM (active)
- GI50 (HL-60): 77.1 nM (active)
- GI50 (IGROV-1): 1450 nM (inactive)
- GI50 (SNB-19): 1860 nM (inactive)
- GI50 (NCI-H226): 1690 nM (inactive)
- GI50 (SF-539): 1760 nM (inactive)
- GI50 (K562): 755 nM (active)
- GI50 (UACC-62): 1900 nM (inactive)
- GI50 (RXF 393): 237 nM (active)
- GI50 (HCC 2998): 1840 nM (inactive)
- GI50 (SK-MEL-28): 1870 nM (inactive)
- GI50 (UACC-257): 1740 nM (inactive)
- GI50 (SNB-78): 1530 nM (inactive)
- GI50 (SK-MEL-2): 1930 nM (inactive)
- GI50 (NCI-H522): 453 nM (active)
- GI50 (A549): 1680 nM (inactive)
- GI50 (NCI-H460): 1610 nM (inactive)
- GI50 (M19-MEL): 1750 nM (inactive)
- GI50 (A498): 1950 nM (inactive)
- GI50 (CAKI-1): 653 nM (active)
- GI50 (SN12C): 1460 nM (inactive)
- GI50 (786-0): 1430 nM (inactive)
- GI50 (OVCAR-3): 1660 nM (inactive)
- GI50 (KM12): 1910 nM (inactive)
- GI50 (SK-OV-3): 1970 nM (inactive)
- GI50 (HOP-92): 167 nM (active)
- GI50 (ACHN): 1560 nM (inactive)
- GI50 (DMS-273): 1680 nM (inactive)
- GI50 (MOLT-4): 365 nM (active)
- GI50 (OVCAR-4): 1910 nM (inactive)
- GI50 (SK-MEL-5): 1840 nM (inactive)
- GI50 (SR): 1570 nM (inactive)
- GI50 (DMS-114): 1140 nM (inactive)
- GI50 (HT-29): 1010 nM (active)
- GI50 (SF-295): 1460 nM (inactive)
- GI50 (SNB-75): 1520 nM (inactive)
- GI50 (SW-620): 1260 nM (inactive)
- GI50 (KM-20L2): 1720 nM (inactive)
- GI50 (EKVX): 3310 nM (inactive)

Compound: CNS(=O)(=O)NN(C)S(=O)(=O)c1ccccc1
- GI50 (U-251): > 100000 nM (inactive)
- GI50 (HOP-62): > 100000 nM (inactive)
- GI50 (UO-31): > 100000 nM (inactive)
- GI50 (Malme-3M): > 100000 nM (inactive)
- GI50 (HCT-116): > 100000 nM (inactive)
- GI50 (RPMI-8226): > 100000 nM (inactive)
- GI50 (M14): > 100000 nM (inactive)
- GI50 (HCT-15): > 100000 nM
- GI50 (LXFL 529): > 100000 nM (inactive)
- GI50 (LOX IMVI): > 100000 nM (inactive)
- GI50 (SF-268): > 100000 nM (inactive)
- GI50 (OVCAR-8): > 100000 nM (inactive)
- GI50 (NCI-H23): > 100000 nM (inactive)
- GI50 (HL-60): > 100000 nM (inactive)
- GI50 (TK-10): > 100000 nM (inactive)
- GI50 (IGROV-1): > 100000 nM (inactive)
- GI50 (SNB-19): > 100000 nM (inactive)
- GI50 (NCI-H226): > 100000 nM (inactive)
- GI50 (SF-539): > 100000 nM (inactive)
- GI50 (K562): > 100000 nM (inactive)
- GI50 (DLD-1): > 100000 nM (inactive)
- GI50 (UACC-62): > 100000 nM (inactive)
- GI50 (RXF 393): 472 nM (active)
- GI50 (HCC 2998): > 100000 nM (inactive)
- GI50 (UACC-257): > 100000 nM (inactive)
- GI50 (SK-MEL-2): > 100000 nM (inactive)
- GI50 (NCI-H522): > 100000 nM (inactive)
- GI50 (A549): > 100000 nM (inactive)
- GI50 (NCI-H460): 85900 nM (inactive)
- GI50 (CCRF-CEM): > 100000 nM (inactive)
- GI50 (M19-MEL): > 100000 nM (inactive)
- GI50 (A498): > 100000 nM (inactive)
- GI50 (CAKI-1): > 100000 nM (inactive)
- GI50 (SN12C): > 100000 nM (inactive)
- GI50 (786-0): > 100000 nM (inactive)
- GI50 (KM12): > 100000 nM (inactive)
- GI50 (COLO 205): > 100000 nM (inactive)
- GI50 (ACHN): > 100000 nM (inactive)
- GI50 (DMS-273): > 100000 nM (inactive)
- GI50 (MOLT-4): > 100000 nM (inactive)
- GI50 (OVCAR-4): > 100000 nM (inactive)
- GI50 (SK-MEL-5): > 100000 nM (inactive)
- GI50 (SR): > 100000 nM (inactive)
- GI50 (DMS-114): > 100000 nM (inactive)
- GI50 (HT-29): > 100000 nM (inactive)
- GI50 (SF-295): > 100000 nM (inactive)
- GI50 (SNB-75): > 100000 nM (inactive)
- GI50 (SW-620): > 100000 nM (inactive)
- GI50 (KM-20L2): > 100000 nM (inactive)
- GI50 (EKVX): > 100000 nM (inactive)
